Here are results for seven compounds from patent EP1377579B1 (Aventis Pharmaceuticals Inc., priority 2000, dated 2002).

The target of data set [1] is cdk4/cyclin D1 (Homo sapiens, UniProt P11802). The data set can be described thus: Cyclin-dependent kinase assay, cdk4/cyclin D1. In kind it is biochemical. The conditions noted are these: cyclin D1/cdk4; GST-pRb substrate, 10 µM ATP.
Data set [2] deals with MDA-MB-435. The data set can be described thus: In vitro proliferation assay (MTT), MDA-MB-435. The data set is classed as cell-based, human. The conditions noted are these: Homo sapiens. The method in brief: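 Cells were seeded at 1000 to 2500 cells/well, allowed to attach overnight, then exposed to test compounds for 3 days. Viable cells were estimated by MTT dye reduction, with dye solubilized in DMSO and absorbance read at 570 nm; IC50s derived from raw data.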

Data set [3] has as its system HL-60. The data set can be described thus: In vitro proliferation assay (MTT), HL-60. Particulars: Homo sapiens. The data set is classed as cell-based. The method in brief:
(§1)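 Cells in RPMI 1640 with 5 % fetal bovine serum were seeded at 1000 to 2500 cells/well and allowed to attach overnight. After 3 days of compound exposure, MTT was added for 2 to 4 hr at 37 C. The dye was dissolved in DMSO, absorbance read at 570 nm, and IC50s derived.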

Data set [4] concerns Jurkat. The data set can be described thus: In vitro proliferation assay (MTT), Jurkat. In kind it is cell-based. The conditions noted are these: Homo sapiens, read-out: Jurkat Leuk. (IC50 µM). The method in brief: as §1
For data set [5], the system named is PC-3 Human Prostate Tumors. The data set can be described thus: PC-3 human prostate tumor xenograft in nude mice. The data set is classed as in vivo. The arrangement: unit not given here. The method, then:
(§2) Antitumor efficacy is assessed using two subcutaneous human tumor xenograft models. The studies are performed using conventional assay techniques. Briefly, HL-60 (leukemia, 5 x10^5 cells) and PC-3 (prostate, 5 x 10^6 cells) tumor cells are injected subcuateously into nude mice (Crl-CD1-Br-nu, Charles River Laboratory, Wilmington, MA). Dosing with compounds began when tumors reached 50 to 100 mm^3. The dose route/schedule for the test compounds is ip/qld (5x/wk). The test doses are set based on the maximum tolerated dose (MTD). […] The test doses for the efficacy studies are set at 1/3rd the MTD (low dose) and the MTD (high dose). The results are shown in Tables 4 and 5 (HL-60, leukemia) (PC-3, prostate cancer). The length of the treatment phase is dependent on the tumor growth rate for the two models. This treatment phase is typically about 3 weeks for the HL-60 model and about 5 weeks for the PC-3 model. […] Dosing with flavopiridol is for the same time frame as for the experimental compounds in both xenograft models. Tumor volume (twice weekly) and body weights (once weekly) are monitored throughout the course of the treatment phase of the experiment. Tumor sizes are measured by external caliper measurements of protruding tumor. Volumes are calculated using the following formula: volume =½ (a x b2), where b is the smaller of two perpendicular diameters.
For orientation: A xenograft is tissue or cells of one species grown in another, often human tumour cells in immunodeficient mice.

For data set [6], the system named is HL-60 Human Leukemia. The data set can be described thus: HL-60 human leukemia xenograft in nude mice. The data set is classed as in vivo. More on the design: key: tumor volume = ½(a × b²) from caliper diameters, in mm^3. The procedure: as §2
The test system of data set [7] is Colo-205. The data set can be described thus: In vitro proliferation assay (MTT), Colo-205. The data set is classed as cell-based. Particulars: Homo sapiens. The method in brief: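 Colo-205 cells were seeded at 1000–2500 cells/well and allowed to attach overnight, then exposed to compound for 3 days. Viable cells were measured by MTT reduction (2–4 h, 37 °C), with DMSO-solubilised dye read at 570 nm. IC50 was derived from concentration–response data.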

Data set [8] deals with cdk2/cyclin E (Homo sapiens, UniProt P24941). The data set can be described thus: Cyclin-dependent kinase assay, cdk2/cyclin E. Particulars: CDK2 IC50, nM, GST-pRb substrate, 10 µM ATP.
Method: The insect cell (Sf9) expression is optimized for each of the CDK/cyclin pairs according to the manufacturer's protocols (Life Technologies).
The viruses are added to the cells and the culture is incubated at 27°C for the desired time. The cells are harvested by centrifugation at 3000 rpm for 10 minutes. The cells are snap frozen on dry ice and stored at - 80°C.
Cell extracts are made following a standard procedure. The cell pellet is resuspended in lysis buffer (50 mM HEPES, pH 8.0, 10 mM MgCl2, 1 mM DTT, 2.5 mM EGTA, 1 mM EDTA, 10 mM β-glycerophosphate, 1 mM sodium vanadate, 1 mM sodium fluoride, 1 x Protease inhibitor cocktail). The cells are lysed using the microfluidizer (Microfluidics) for 20 minutes. Cell debris is removed by centrifugation at 100,000 x g. The cell extracts are aliquoted in 1 ml aliquots, frozen on dry ice, and stored at -80°C.
The kinase reactions are performed following a standard procedure. The enzyme and inhibitor are diluted in kinase buffer (50 mM HEPES, pH 8.0, 10 mM MgCl2, 2.5 mM EGTA, 10 mM β-glycerophosphate, 1 mM sodium vanadate, 1 mM sodium fluoride, and 1 mM DTT) and pre-incubated for 30 minutes. The cdk2 and cdk4 enzyme activities are assayed using 500 ng of the GST-pRb substrate (see description below) in the presence of 10 µM cold ATP and 1 µCi of [γ-^33P] ATP for 30 minutes at room temperature. […] The reactions are terminated by the addition of 50 µL of 10 mM cold ATP to stop the reactions. The reactions are transferred to a pre-soaked 96-well multi-screen plate containing 30 µL of 100% TCA per well. After incubation for one hour at room temperature, the plates are washed twice with 200 µl of 20% TCA, followed by 200 µl of 10% TCA and finally with 200 µl of 5% TCA. After drying the plates at room temperature, the filter plates are placed in adapter plates (Packard) and 40 µl of Microscint-O® (Packard) is added to each well.
A short description of data set [9]: Bioavailability experiment in mice given single intravenous cassette doses. Particulars: for Conc. (ng/ml) in plasma / Conc. in plasma: mice; for Conc. (ng/ml) in plasma: BLQ = below assay quantification limit; for Cls: mice plasma, single intravenous cassette dose; for Conc. in plasma: single 15 mg/kg intravenous cassette dose (3 mg/kg/compound), Cassette #3, 24 h, BLQ = below assay quantification limit (approximately 1 ng/ml).

[10] abbreviates: MDA-MB-435, MTT assay, value (SD, n) where given, read-out: MB-435 Breast (IC50 µM).
Where [11] appears, read: HL-60, MTT assay, value (SD, n) where given, read-out: HL-60 Leuk. (IC50 µM).
Setting [12] is: MTT assay, value (SD, n) where given.
The mark [13] stands for this setting: COLO 205, MTT assay, value (SD, n) where given, read-out: Colo-205 Colon (IC50 µM).
[14] abbreviates: Cassette #2, single 18 mg/kg intravenous cassette dose, 24 h.
Setting [15] is: 3 mg/kg/compound (18 mg/kg Total Dose), Cassette #2.
The mark [16] stands for this setting: MDA-MB-435, read-out: MB-435 Breast (IC50 µM).
[17] abbreviates: HL-60, read-out: HL-60 Leuk. (IC50 µM).
The mark [18] stands for this setting: COLO 205, read-out: Colo-205 Colon (IC50 µM).
Where [19] appears, read: 3 mg/kg/compound (15 mg/kg Total Dose), Cassette #3.
Where [20] appears, read: Cassette #1, single 18 mg/kg intravenous cassette dose, 24 h.
[21] abbreviates: 3 mg/kg/compound (18 mg/kg Total Dose), Cassette #1.

Like-named read-outs stand apart in the source and are kept apart here. Bounds are passed on as bounds.

Sequence of cdk4/cyclin D1 (P11802 whole entry): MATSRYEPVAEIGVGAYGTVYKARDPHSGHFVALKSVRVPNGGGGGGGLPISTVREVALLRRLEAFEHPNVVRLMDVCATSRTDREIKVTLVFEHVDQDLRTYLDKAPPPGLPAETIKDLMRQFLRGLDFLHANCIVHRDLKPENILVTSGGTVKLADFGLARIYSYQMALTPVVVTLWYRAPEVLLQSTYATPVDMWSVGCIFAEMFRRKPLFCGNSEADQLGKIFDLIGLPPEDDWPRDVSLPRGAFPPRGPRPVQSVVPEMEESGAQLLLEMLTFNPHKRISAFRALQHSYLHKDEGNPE
Sequence of cdk4/cyclin D1 (P24385 whole entry partner): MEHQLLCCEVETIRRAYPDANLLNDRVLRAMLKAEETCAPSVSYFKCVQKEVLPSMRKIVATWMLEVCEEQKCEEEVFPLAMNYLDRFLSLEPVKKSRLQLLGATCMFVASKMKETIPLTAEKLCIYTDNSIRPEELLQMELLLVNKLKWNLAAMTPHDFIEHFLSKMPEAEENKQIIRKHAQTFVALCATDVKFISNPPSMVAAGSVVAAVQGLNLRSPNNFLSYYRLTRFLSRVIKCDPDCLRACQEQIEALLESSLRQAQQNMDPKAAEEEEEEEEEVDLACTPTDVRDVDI

Turning to `CCOC(=O)c1ccc(NC(=O)N2CCC(Nc3nc(N[C@H]4CC[C@H](N)CC4)nc4c3ncn4C3CCCC3)CC2)cc1.Cl.Cl` [compound 154, trans-4-[(1-{4-[2-(4-Amino-cyclohexylamino)-9-cyclopentyl-9H-purin-6-ylamino]-piperidin-1-yl}-methanoyl)-amino]-benzoic acid ethyl ester dihydrochloride], the IC50 (as a rule, the concentration at which inhibition is half-maximal) in [1] came out at 285 nM; in data set [2] (setting [10]) it was 0.21 µM; in data set [3] (setting [11]), 0.06 µM; in data set [4] (setting [12]) it was 0.25 µM; in data set [7] (setting [13]), 0.01 µM; in data set [8], 30 nM. Besides, the “PC-3 Mean Vol. ± SD” value in data set [5] (Table 4, dose 3 mg/kg ip) is on record as 1385 ± 873; in data set [5] (Table 4, dose 10 mg/kg ip), 1707 ± 721. In addition, the “HL60 Mean Vol. ± SD” value in [6] (Table 4, dose 3 mg/kg ip) is 2641 ± 3024; in data set [6] (Table 4, dose 10 mg/kg ip) it was 2950 ± 1929. Besides, the “Conc. (ng/ml) in plasma” value in [9] (Cassette #2, single 18 mg/kg intravenous cassette dose, 8 h, Mean ± SD) was “BLQ^a”; in data set [9] (setting [14]), “BLQ^a”. The same compound displayed a Cls in data set [9] (setting [15]) of 31.6 mL/min/kg.

In the case of `Cl.Cl.N[C@H]1CC[C@H](Nc2nc(NC3CCN(C(=O)Oc4ccc(Cl)cc4)CC3)c3ncn(C4CCCC4)c3n2)CC1` [compound 88, trans-4-[2-(4-Amino-cyclohexylamino)-9-cyclopentyl-9H-purin-6-ylamino]-piperidine-1-carboxylic acid 4-chloro-phenyl ester dihydrochloride], the concentration for half-maximal inhibition (IC50) in [1] was 204 nM; in [2] (setting [16]) it was 0.02 µM; in data set [3] (setting [17]) it was 0.07 µM; in data set [4] it was 0.02 µM; in data set [7] (setting [18]), 0.04 µM; in [8], 7 nM. The “PC-3 Mean Vol. ± SD” value in [5] (Table 4, dose 1 mg/kg ip) came to 1601 ± 1348; in [5] (Table 4, dose 3 mg/kg ip), 2278 ± 2110. In addition, the “HL60 Mean Vol. ± SD” value is given as 4415 ± 2740 in data set [6] (Table 4, dose 1 mg/kg ip) and 2624 ± 2108 in [6] (Table 4, dose 3 mg/kg ip). Besides, in data set [9] (setting [19]), the Cls came out at 77.9 mL/min/kg. Moreover, the Conc. in plasma entry in data set [9] is listed as “BLQ”.

In the case of `Cl.Cl.N#Cc1ccc(S(=O)(=O)N2CCC(Nc3nc(N[C@H]4CC[C@H](N)CC4)nc4c3ncn4C3CCCC3)CC2)cc1` [compound 109, trans-N^2-(4-Amino-cyclohexyl)-9-cyclopentyl-N^6-[1-(4-cyano-benzenesulfonyl)-piperidin-4-yl]-9H-purine-2,6-diamine dihydrochloride], the half-maximal inhibitory concentration (IC50) in data set [1] was determined as 12 nM; in data set [2] (setting [10]) it was 0.11 µM; in data set [3] (setting [11]), 0.12 µM; in data set [4] (setting [12]), 0.44 µM; in [7] (setting [13]), 0.18 µM; in data set [8] it was 45 nM. The “PC-3 Mean Vol. ± SD” value in [5] (Table 4, dose 3 mg/kg ip) turned out to be 1807 ± 1388; in data set [5] (Table 4, dose 10 mg/kg ip), 979 ± 734. Moreover, the “HL60 Mean Vol. ± SD” value in [6] (Table 4, dose 3 mg/kg ip) is 2597 ± 2240; in data set [6] (Table 4, dose 10 mg/kg ip), 3466 ± 3730. Moreover, the “Conc. (ng/ml) in plasma” value in data set [9] (setting [20]) is “BLQ”. Further, the Cls in [9] (setting [21]) worked out at 45.1 mL/min/kg.

On to `Cl.Cl.N[C@H]1CC[C@H](Nc2nc(NC3CCN(C(=O)c4cccc(C(F)(F)F)c4F)CC3)c3ncn(C4CCCC4)c3n2)CC1` [compound 12, trans-1-{4-[2-(4-Amino-cyclohexylamino)-9-cyclopentyl-9H-purin-6-ylamino]-piperidin-1-yl}-1-(2-fluoro-3-trifluoromethyl-phenyl)-methanone dihydrochloride], for which the IC50 in data set [1] came out at 614 nM; in [2] (setting [10]), 0.28 µM; in [3] (setting [11]) it was 0.16 µM; in [4] (setting [12]) it was 0.48 µM; in data set [7] (setting [13]), 0.21 µM; in data set [8], 5 nM. Also, the “PC-3 Mean Vol. ± SD” value in data set [5] (Table 5, dose 3 mg/kg ip) came out at 1063 ± 693; in [5] (Table 5, dose 10 mg/kg ip) it was 1107 ± 606. Also, the “HL60 Mean Vol. ± SD” value was determined as 4948 ± 2803 in [6] (Table 5, dose 3 mg/kg ip) and 2624 ± 2108 in [6] (Table 5, dose 10 mg/kg ip). The “Conc. (ng/ml) in plasma” value in [9] (setting [20]) is listed as “BLQ”. The Cls in data set [9] (setting [21]) was determined as 19.6 mL/min/kg.

Take `COc1ccc(OC(=O)N2CCC(Nc3nc(N[C@H]4CC[C@H](N)CC4)nc4c3ncn4C3CCCC3)CC2)cc1.Cl.Cl` [compound 84, trans-4-[2-(4-Amino-cyclohexylamino)-9-cyclopentyl-9H-purin-6-ylamino]-piperidine-1-carboxylic acid 4-methoxy-phenyl ester dihydrochloride]: the IC50 in data set [1] is 69 nM; in data set [2] (setting [16]) it was 0.1 µM; in data set [3] (setting [17]), 0.04 µM; in data set [4], 0.12 µM; in data set [7] (setting [18]) it was 0.03 µM; in data set [8], 9 nM. Further, the “PC-3 Mean Vol. ± SD” value worked out at 770 ± 567 in data set [5] (Table 5, dose 1 mg/kg ip) and 1386 ± 752 in data set [5] (Table 5, dose 3 mg/kg ip). Further, the “HL60 Mean Vol. ± SD” value in data set [6] (Table 5, dose 1 mg/kg ip) came out at 4790 ± 6912; in data set [6] (Table 5, dose 3 mg/kg ip), 4886 ± 3467. The “Conc. (ng/ml) in plasma” value in [9] (setting [14]) is reported as “BLQ”. In data set [9] (setting [15]), the Cls is 51.8 mL/min/kg.

For `Cl.Cl.N[C@H]1CC[C@H](Nc2nc(NC3CCN(S(=O)(=O)c4cccc(C(F)(F)F)c4)CC3)c3ncn(C4CCCC4)c3n2)CC1` [compound 112, trans-N^2-(4-Amino-cyclohexyl)-9-cyclopentyl-N^6-[1-(3-trifluoromethyl-benzenesulfonyl)-piperidin-4-yl]-9H-purine-2,6-diamine dihydrochloride], the IC50 in data set [1] was 224 nM; in data set [2] (setting [10]), 0.87 µM; in [3] (setting [11]) it was 0.18 µM; in [4] (setting [12]), 0.11 µM; in data set [7] (setting [13]), less than 0.02 µM; in [8] it was 48 nM. Besides, the “PC-3 Mean Vol. ± SD” value is 1302 ± 869 in data set [5] (Table 4, dose 0.3 mg/kg ip) and 1155 ± 872 in data set [5] (Table 4, dose 1 mg/kg ip). For the same compound, the “HL60 Mean Vol. ± SD” value in [6] (Table 4, dose 0.3 mg/kg ip) was determined as 5413 ± 2845; in data set [6] (Table 4, dose 1 mg/kg ip), 4170 ± 3111. In data set [9] (setting [19]), this compound gave a Cls of 34.2 mL/min/kg. Besides, in data set [9], the Conc. in plasma result is given as “BLQ”.

Regarding `Cl.Cl.N[C@H]1CC[C@H](Nc2nc(NC3CCN(C(=O)Oc4ccc(Br)cc4)CC3)c3ncn(C4CCCC4)c3n2)CC1` [compound 81, trans-4-[2-(4-Amino-cyclohexylamino)-9-cyclopentyl-9H-purin-6-ylamino]-piperidine-1-carboxylic acid 4-bromo-phenyl ester dihydrochloride], the IC50 stood at 67 nM in data set [1]; 0.1 µM in data set [2] (setting [16]); 0.02 µM in data set [3] (setting [17]); 0.1 µM in [4]; 0.03 µM in data set [7] (setting [18]); 39 nM in data set [8]. For the same compound, the “PC-3 Mean Vol. ± SD” value came to 1258 ± 523 in data set [5] (Table 5, dose 1 mg/kg ip) and 1007 ± 1120 in data set [5] (Table 5, dose 3 mg/kg ip). Besides, the “HL60 Mean Vol. ± SD” value in data set [6] (Table 5, dose 1 mg/kg ip) stood at 5802 ± 2996; in data set [6] (Table 5, dose 3 mg/kg ip) it was 5104 ± 4014. Besides, the “Conc. (ng/ml) in plasma” value in data set [9] (setting [14]) is recorded as “BLQ”. In data set [9] (setting [15]), this compound had a Cls of 75.8 mL/min/kg.
